According to paper PMC6522510 (Nature Communications, 2019):
Read-outs that look alike come from different tables or passages of the source.

Legend:
Parameters in all cases: species or system AML cell lines (8); Primary HTS, single concentration about 10 uM, Cell Titer Glo viability; log10 luminescence, per cent inhibition relative to cycloheximide control
Details in all cases: 72 h, inhibitor
[1] = system: CHRF288-11
[2] = system: M07e
[3] = system: ML-2
[4] = system: U937
[5] = system: MOLM-13
[6] = system: MV4-11
[7] = system: CMS
[8] = system: CMK
[9] = relative to cycloheximide control, log10 luminescence

SMILES	CHRF288-11 %inh [1, 9]	M07e %inh [2, 9]	ML-2 %inh [3, 9]	U937 %inh [4, 9]	MOLM-13 %inh [5, 9]	MV4-11 %inh [6, 9]	CMS %inh [7, 9]	CMK %inh [8, 9]	CHRF288-11 %inh ([1]; 10 µM)	M07e %inh ([2]; 10 µM)	ML-2 %inh ([3]; 10 µM)	U937 %inh ([4]; 10 µM)	MOLM-13 %inh ([5]; 10 µM)	MV4-11 %inh ([6]; 10 µM)	CMS %inh ([7]; 10 µM)	CMK %inh ([8]; 10 µM)
CCOc1ccc2c(-c3ccnc(Nc4cccc(C(F)(F)F)c4)n3)cnn2n1 [SJ000573265-1, U17838/110/3]	2.566%	6.84%	2.429%	-3.226%	1.961%	2.829%	0.8077%	-2.107%								
COC(=O)Nc1nc2cc(Oc3ccc(NC(=O)Nc4cccc(Br)c4)cc3)ccc2[nH]1 [SJ000573266-1, T261/62/3]	12.69%	12.78%	3.598%	79.03%	76.65%	65.99%	26.73%	40.21%								
COc1cc(/C=N/Nc2ncnc3c2cnn3C(C)C)ccc1O [SJ000573267-1, T237/25/6]									29.61%	6.424%	8.895%	8.888%	52.9%	40.62%	9.426%	41.95%
O=C1NC(=O)C(N2CCc3ccccc32)=C1c1ccc(Cl)cc1 [SJ000573268-1, DH97836-102A1]	52.52%	-0.7324%	-0.2823%	0.6171%	0.0382%	95.01%	-3.009%	4.78%								
Cc1ccc(O)cc1Nc1ccnc2cc(-c3ccccn3)ccc12 [SJ000573269-1, R1902/28/3 | HC 206053 | GW440139B | | RTP SMTECH | SID124349934 | TCMDC-138201 | GW440139B |]	60.6%	10.95%	1.439%	14.95%	20.29%	3.761%	4.641%	50.01%								
CCOc1nccc2c1nc(-c1nonc1N)n2CC [SJ000573270-1, DW100508-082A1]	53.12%	-0.5841%	28.26%	-1.837%	-1.635%	-0.5042%	-3.21%	45.39%								
O=C(Nc1n[nH]c2nc(-c3ccco3)ccc12)C1CC1 [SJ000573271-1, VB100064-193A1]	7.062%	-1.707%	-0.1888%	-4.198%	1.202%	-0.2919%	0.8699%	-3.194%								
Cc1ccc(C(=O)NC2CC2)cc1-c1ccc2[nH]ncc2c1 [SJ000573272-1, R8615/48/1]	1.821%	0.6909%	0.7274%	1.222%	-2.369%	1.257%	0.2308%	0.7696%								
CCCN1CCC=C(c2ccc(Nc3nc(Nc4ccccc4C(N)=O)c4cc[nH]c4n3)c(C)c2)C1 [SJ000573273-1, U22972/6/1]	54.2%	19.9%	20.08%	14.36%	49.41%	28.66%	2.734%	24.28%								
COc1cc(Nc2nccc(-c3cnn4ncccc34)n2)cc(OC)c1 [SJ000573274-1, U16419/146/1]	52.5%	113.9%	59.09%	80.29%	76.09%	76.66%	100.2%	84.54%								
CC(C)c1ccc(-c2cc(-c3c[nH]nc3-c3ccccn3)ccn2)cc1 [SJ000573275-1, FVLN/241/7/1]	9.433%	2.317%	1.414%	0.007743%	2.021%	4.536%	-0.3112%	0.9087%								
Fc1ccc(-c2cc(-c3c[nH]nc3-c3ccccn3)ccn2)cc1 [SJ000573276-1, FCJB/213/107/1]	-1.896%	-1.13%	4.336%	16.91%	10.74%	1.718%	-1.917%	15.4%								
COc1ccc(-c2cc(-c3c[nH]nc3-c3ccccn3)ccn2)cc1 [SJ000573277-1, FFJG/208/167/1]	12.63%	1.202%	-0.1507%	7.208%	2.31%	4.2%	0.9761%	4.937%								
Nc1nc(-c2ccccn2)c(-c2ccc3ncccc3n2)s1 [SJ000573278-1, FAMP/256/57/4]	2.264%	0.9531%	2.846%	-0.9094%	2.605%	-2.996%	0.3275%	2.499%								
c1ccc(-c2n[nH]cc2-c2ccnc(-c3ccc(OCCN4CCOCC4)cc3)c2)nc1 [SJ000573279-1, FVLN/241/86/2]	1.18%	-4.621%	-0.6736%	-1.579%	4.641%	1.132%	-2.932%	0.1656%								
CN(c1ccc(NC(=O)Nc2ccc(OC(F)(F)F)cc2)cc1)c1ccnc(Nc2cccc(S(N)(=O)=O)c2)n1 [SJ000573281-1, U17983/20/3]	54%	21.34%	11.59%	20.62%	77.33%	82.54%	4.771%	57.59%								
N#Cc1c(NC(=O)c2ccc(F)cc2)sc2c1CCCC2 [SJ000573282-1, R15619/128/1]	20.67%	6.55%	2.372%	2.356%	3.13%	-0.9119%	0.2829%	5.634%								
Cc1c2ccc(N(C)c3ccnc(Nc4cccc(S(N)(=O)=O)c4)n3)cc2nn1C [SJ000573283-1, U17574/40/1]	6.19%	4.447%	3.984%	17.32%	26.58%	13.33%	2.522%	33.97%								
COc1cc2c(cc1Nc1nc(Nc3cccc(F)c3C(N)=O)c3cc[nH]c3n1)N(C(=O)CN1CCN(C(C)C)CC1)CC2 [SJ000573284-1, U23773/22/1]	156%	-2.07%	60.74%	-4.151%	110%	-1.565%	4.776%	28.42%								
COC(=O)Nc1nc2ccc(Oc3ccc(NC(=O)Nc4cc(C(F)(F)F)ccc4F)cc3)cc2s1 [SJ000573286-1, T277/77/2]	2.804%	9.62%	3.773%	-3.236%	27.47%	23.01%	-2.124%	4.078%								
Nc1nc(-c2cccc(Cl)c2)c(-c2ccc3ncccc3n2)s1 [SJ000573287-1, FTTA/246/163/2]	1.906%	1.682%	2.244%	-2.159%	-0.7857%	-3.034%	0.5039%	-4.613%								
Cc1nnc(-c2cccc(-c3ccc(C(=O)NCC4CC4)cc3)c2)o1 [SJ000573288-1, N5058-19-3]	-4.251%	0.8786%	2.007%	-1.478%	2.072%	-0.4477%	-1.146%	3.578%								
CN(C)CCOc1ccc(-c2nc(-c3ccncc3)c(-c3ccc4c(c3)CC/C4=N\O)[nH]2)cc1 [SJ000573289-1, MM206071-092A1 | SB590885]	9.844%	3.647%	-1.225%	1.485%	11.69%	2.418%	1.753%	-1.288%								
